Values after ≈ are worked out from the molar mass of the structure shown. Values joined by “and” are separate entries in the source; they are usually repeats but may differ in a detail not shown here. Identical values can stand only once.
Assays:
[1] = tested on: persisters of MRSA Mu50; assay: Antipersister activity assay (Resazurin); type: cell-based; conditions: Staphylococcus aureus, 24 h, read-out: MIC against persisters
Procedure: Cultures were, if not stated differently, incubated at 37 °C with aeration and shaking (150 rpm) in Mueller-Hinton broth (MHB). Bacteria were freshly incubated at the next morning from an overnight pre-culture for actively growing bacteria to an OD600 nm of approx. 0.6. To ensure persistent growth form, the bacteria were grown overnight until a density at OD600 nm > 5.0 was obtained. For biofilm growth, some colonies from a Mueller-Hinton agar (MHA) plate were picked and resuspended in MHB. Cell density has been adjusted to OD600 nm = 0.8, and cells were sown into a flat-bottom 96-well plate to be incubated statically at 37 °C with aeration. Studies were mainly performed with S. aureus Mu50.
Sterile U-bottom 96-well polystyrene plates were used for the assay. The wells were prepared with a final volume of 50 μL phosphate-buffered saline (PBS, NaCl = 137 mM, KCl = 2.7 mM, NaHPO4 = 10 mM, KH2PO4 = 1.8 mM, pH = 7.4) containing a 2-fold serial dilution of compounds ranging from 100 to 0.78 μM. S. aureus was cultivated as described above and washed three times with PBS before adjusting the cell density to approx. 2 × 10^7 cells/mL (OD600 nm = 0.08). […]
Viability of bacterial cells was estimated employing the Resazurin dye reduction assay. […] Finally, the fluorescence was quantified in a plate reader with 535-nm excision and 590-nm emission wavelengths. […]

[2] = tested on: persisters of P. aeruginosa POA1; assay: Antipersister activity assay (Resazurin); type: cell-based; conditions: Pseudomonas aeruginosa, 24 h, read-out: MIC against persisters
[3] = tested on: preformed biofilms of MRSA Mu50; assay: Antibiofilm activity assay, viability by Resazurin reduction; type: cell-based, Staphylococcus aureus; conditions: preformed 24 h biofilms
Procedure: Sterile flat-bottom 96-well polystyrene plates were used for the assay. Some S. aureus colonies were picked from an MHA plate and resuspend in MHB + 10% glucose, and cell density was adjusted to 10^8 cells per mL. One hundred microlitres of cell suspension was added to each well, and the plate was incubated statically for 24 h to induce growth and maturation of biofilms. After 24 h, the wells were washed three times with PBS to remove planktonic cells, and compounds were added to the wells to check for antibiofilm activity. To check for inhibition of biofilm formation, compounds were added immediately after adding of cells to the wells in sublethal concentrations. Lysostaphin, moxifloxacin and DMSO served as positive and negative controls, respectively.
Viability was measured as described above utilizing the Resazurin reduction assay. Biofilm formation was measured using crystal violet staining as described elsewhere (Christensen et al. [1985]; Stepanovic et al. [2007]). Briefly, biofilms were washed three times with PBS and allowed to air dry before 0.1% (v/v) crystal violet solution (Waldeck GmbH & Co., Münster, Germany) was added to each well. The biofilms were stained for 15 min at room temperature (RT). […] Finally, 100 μL was transferred to a fresh 96-well plate to measure absorption at 600 nm with a plate reader.

[4] = tested on: HepG2 (CLS 300198); assay: Cytotoxicity assay (Resazurin); type: cell-based; conditions: Homo sapiens, HepG2, 48 h, 2 days
Procedure: Human cell lines were grown in their respective growth medium. Cells have been counted using a haemocytometer, and cell density was adjusted to 10^6 cells/mL. A 2-fold serial dilution was prepared in 96-well U-bottom plates, and cells were sown into the wells to a final density of […]. After 2 days at 37 °C and 5% CO2, 10 μL of a 100 μg/mL Resazurin dye solution was added to each well and was incubated for several hours. The reaction was inactivated with 100 μL of a 10% formalin solution per well. Finally, the fluorescence was quantified in a plate reader with 535-nm excision and 590-nm emission wavelengths.

[5] = tested on: human PBMNCs; parameters: method as in Mayer et al. [2019]; conditions: ref Mayer et al. [2019]; cited from earlier work
[6] = tested on: S. aureus; assay: Generation of spontaneous resistant mutants; type: cell-based, Staphylococcus aureus; conditions: for fold increased MIC of mutants: after 15 passages in liquid media with increasing sublethal concentrations; for resistance frequency: one-step selection on solid media at 5-fold MIC
Text: Spontaneous resistant mutants have been generated with 2-bromo-PP and 3-bromo-PP to further investigate the mechanism of antibacterial action and resistance. Since isolation of spontaneous resistant mutants in one step was not successful on solid media containing 2-bromo-PP or 3-bromo-PP (i.e. resistance frequency < 10^−7 at 5-fold MIC), enrichment was done by passaging bacteria daily in liquid media containing increasing sublethal concentrations of PPs. […] Moreover, we observed cross-resistance between PPs since 2-bromo-PP-resistant mutants were also resistant against 3-bromo-PP and vice versa (Fig. 4a; Table 2).

[7] = tested on: Enterobacter cloacae isolate 3678; assay: MIC determination (broth microdilution in LB medium); type: cell-based
Procedure: The minimal inhibitory concentration (MIC) has been determined according to the CSLI guidelines (CLSI [2012]). Briefly, in a sterile polystyrene U-bottom 96-well plate, a 2-fold serial dilution ranging from 100 to 0.78 μM of testing compounds has been prepared in 50 μL MHB. A freshly inoculated S. aureus culture was grown until OD600 nm of approx. 0.6 and diluted to 10^6 CFU/mL in MHB. Finally, 50 μL of the latter cell suspension was added to each well and then incubated statically for 18–24 h at 37 °C. MIC was determined using BacTiterGlo ATP assay (Promega, Madison, WI, USA) and Tecan Infinite F200 Pro (Tecan, Männedorf, Switzerland). Moxifloxacin and DMSO were used as positive and negative control, respectively. Sublethal concentrations of colistin (0.1 μM) were used in some experiments to increase the permeability of the gram-negative cell envelope for compound testing. For E. cloacae, a broth microdilution assay was performed using a serial 2-fold dilution in 96-well flat-bottomed plates (Falcon, BD Bioscience, Heidelberg) of both PPs in broth LB medium (Roth, Karlsruhe) at a concentration range of 50–0.024 μM.

[8] = tested on: pre-formed MRSA biofilms; assay: Biofilm viability by CFU plating; type: cell-based, Staphylococcus aureus; conditions: 24 h of treatment, 4× minimal biofilm inhibitory concentration, moxifloxacin 20 μM
Procedure: Additionally, biofilm viability was quantified by CFU plating. Biofilms were pregrown as described above and treated for 24 h with 4× minimal biofilm inhibitory concentrations as calculated from the Resazurin reduction assay. Biofilms were dispersed by pipetting followed by sonification in a water bath. Dilutions were plated on Mueller-Hinton agar plates and incubated overnight at 37 °C.

[9] = tested on: preformed biofilms of P. aeruginosa POA1; assay: Antibiofilm activity assay, viability by Resazurin reduction; type: cell-based, Pseudomonas aeruginosa

Row | Structure (SMILES) | MIC [1] [µM] | MIC [2] [µM] | concentration inhibiting viability of cells in biofilms (maximal effect) [3] [µM] | IC50 [4] [µM] | cytotoxicity [5] | fold increased MIC of mutants [6] [fold] | resistance frequency [6] | MIC90 [7] | reduction in viable cell counts in biofilms [8] | concentration of complete inhibition of cell viability in biofilms [9] [µM]
1 | Oc1c(Br)cc(Br)c(Br)c1Oc1ccc(Br)cc1Br [3-bromo-PP, 3,4,6-tribromo-2-(2′,4′-dibromophenoxy)phenol] | 6.25 (≈ 3.63 µg/mL) | 50 (≈ 29 µg/mL) | 12.5 | 25 | low cytotoxicity | 32 | < 10^−7 | 12.5 µM and 7.26 µg/mL | ca. 5 order of magnitudes | 50
2 | Oc1c(Br)cc(Br)cc1Oc1ccc(Br)cc1Br [2-bromo-PP, 4,6-dibromo-2-(2′,4′-dibromophenoxy)phenol] | 12.5 (≈ 6.27 µg/mL) | 12.5 (≈ 6.27 µg/mL) | 100 | 50 | low cytotoxicity | 4 | < 10^−7 | 12.5 µM and 6.27 µg/mL | ca. 5 order of magnitudes | 25

Reference: paper PMC8217011, “Natural brominated phenoxyphenols kill persistent and biofilm-incorporated cells of MRSA and other pathogenic bacteria” (Applied Microbiology and Biotechnology, 2020)
